In patent US8822471B2, “Compounds, pharmaceutical compositions and uses thereof” (Boehringer Ingelheim International GmbH, priority 2011, dated 2014):

Target: T1, human GPR119 (Homo sapiens, UniProt Q8TDV5)
T1 construct: expression vector for human GPR119 cDNA (Acc. No. NP_848566); expressed in transfected cells
T1 sequence (Q8TDV5 1-335): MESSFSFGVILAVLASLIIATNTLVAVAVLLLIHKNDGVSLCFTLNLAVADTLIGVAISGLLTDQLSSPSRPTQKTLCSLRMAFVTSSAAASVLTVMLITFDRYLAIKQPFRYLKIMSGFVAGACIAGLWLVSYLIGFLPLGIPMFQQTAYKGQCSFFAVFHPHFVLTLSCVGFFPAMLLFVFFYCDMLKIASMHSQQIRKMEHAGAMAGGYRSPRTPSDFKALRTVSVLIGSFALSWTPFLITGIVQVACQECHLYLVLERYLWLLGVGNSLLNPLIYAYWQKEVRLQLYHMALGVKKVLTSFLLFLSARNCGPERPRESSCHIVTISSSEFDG
Assay: AlphaScreen cAMP assay in MIN6 cells stably transfected with human GPR119
Assay type: cell-based
Settings: Min-6/hGPR119 cells, AlphaScreen cAMP Assay Kit, 45 minutes incubation at room temperature
Procedure: The compounds of formula I according to the invention modulate the activity of the G-protein-coupled receptor GPR119. The effect of the compounds on the activation of GPR119 and on the stimulation of intracellular cAMP concentration is determined using the AlphaScreen cAMP Assay Kit (Cat. No. #6760625R) made by PerkinElmer.
MIN6 cells [Miyazaki J et al. Endocrinology. 1990 July; 127(1):126-32] are stably transfected with an expression vector for human GPR119 cDNA (Acc. No. NP_848566). Min-6/hGPR119 cells are cultured in DMEM, 10% FBS, 50 μM β-mercaptoethanol, 0.3 mg/mL Geniticin, 2 mM GlutaMAX at 37° C. 5% CO2. For the assay, the cells are seeded in Optiplates (white, 384-well, 160 W-barcoded, TC, sterile with lid, Cat. No. #6007688 (Perkin Elmer); 10000 cells/well; 50 μl). The plates covered with lids are then incubated for 24 hours at 37° C./5% CO2. After the medium is aspirated from the wells completely, 10 μl of the test compound are added, the compounds are diluted using stimulating buffer (140 mM NaCl, 3.6 mM KCl, 0.5 mM NaH2PO4, 0.5 mM MgSO4, 1.5 mM CaCl2, 10 mM Hepes, 5 mM NaHCO3; pH 7.4. 0.5 mM IBMX and 0.1% BSA, the final DMSO concentration is 1%). After 45 minutes incubation at room temperature (approx. 20° C.), the cAMP concentrations are determined using the AlphaScreen cAMP Assay Kit (Cat. No. #6760625R from PerkinElmer).

Compound | EC50 [µM]
O=C(c1ccc(-c2cnco2)cc1)N(C1CC1)C1CCN(c2nc(CC(F)(F)F)no2)CC1 [Example 62, N-Cyclopropyl-4-oxazol-5-yl-N-{1-[3-(2,2,2-trifluoro-ethyl)-[1,2,4]oxadiazol-5-yl]-piperidin-4-yl}benzamide] | 0.016
CCc1cnc(N2CCC(N(C(=O)c3ccc(-c4cnco4)c(F)c3)C3CC3)CC2)nc1 [Example 63, N-Cyclopropyl-N-[1-(5-ethyl-pyrimidin-2-yl)-piperidin-4-yl]-3-fluoro-4-oxazol-5-yl-benzamide] | 0.003
CC(C)c1noc(N2CCC(N(C(=O)c3ccc(-c4cnco4)c(F)c3)C3CC3)CC2)n1 [Example 64, N-Cyclopropyl-3-fluoro-N-[1-(3-isopropyl-[1,2,4]oxadiazol-5-yl)-piperidin-4-yl]-4-oxazol-5-yl-benzamide] | 0.004
CCCc1noc(N2CCC(N(C(=O)c3ccc(-c4cnco4)c(F)c3)C3CC3)CC2)n1 [Example 65, N-Cyclopropyl-3-fluoro-4-oxazol-5-yl-N-[1-(3-propyl-[1,2,4]oxadiazol-5-yl)-piperidin-4-yl]-benzamide] | 0.007
Cc1cnc(N2CCC(N(C(=O)c3ccc(-c4cnco4)c(F)c3)C3CC3)CC2)cn1 [Example 66, N-Cyclopropyl-3-fluoro-N-[1-(5-methyl-pyrazin-2-yl)-piperidin-4-yl]-4-oxazol-5-yl-benzamide] | 0.21
CC(C)(C)c1noc(N2CCC(N(C(=O)c3ccc(-c4cnco4)c(F)c3)C3CC3)CC2)n1 [Example 67, N-[1-(3-tert-Butyl-[1,2,4]oxadiazol-5-yl)-piperidin-4-yl]-N-cyclopropyl-3-fluoro-4-oxazol-5-yl-benzamide] | 0.188
CCc1cnc(N2CCC(N(C(=O)c3ccc(-c4cnco4)c(F)c3)C3CC3)CC2)cn1 [Example 68, N-Cyclopropyl-N-[1-(5-ethyl-pyrazin-2-yl)-piperidin-4-yl]-3-fluoro-4-oxazol-5-yl-benzamide] | 0.211
CC(C)c1noc(N2CCC(N(C(=O)c3cc(F)c(-c4cnco4)c(F)c3)C3CC3)CC2)n1 [Example 69, N-Cyclopropyl-3,5-difluoro-N-[1-(3-isopropyl-[1,2,4]oxadiazol-5-yl)-piperidin-4-yl]-4-oxazol-5-yl-benzamide] | 0.198
Cc1cnc(N2CCC(N(C(=O)c3ccc(-c4cnco4)c(F)c3)C3CC3)CC2)nc1 [Example 70, N-Cyclopropyl-3-fluoro-N-[1-(5-methyl-pyrimidin-2-yl)-piperidin-4-yl]-4-oxazol-5-yl-benzamide] | 0.191
O=C(c1ccc(-c2cnco2)cc1)N(C1CC1)C1CCN(c2ncc(Br)cc2F)CC1 [Example 71, N-(5′-Bromo-3′-fluoro-3,4,5,6-tetrahydro-2H-[1,2′]bipyridinyl-4-yl)-N-cyclopropyl-4-oxazol-5-yl-benzamide] | 0.011
O=C(c1ccc(-c2cnco2)cc1)N(C1CC1)C1CCN(c2ccc(C3CC3)nn2)CC1 [Example 72, N-Cyclopropyl-N-[1-(6-cyclopropyl-pyridazin-3-yl)-piperidin-4-yl]-4-oxazol-5-yl-benzamide] | 0.864
Cc1cnc(N2CCC(N(C(=O)c3ccc(-c4cnco4)cc3)C3CC3)CC2)c(F)c1 [Example 73, N-Cyclopropyl-N-(3′-fluoro-5′-methyl-3,4,5,6-tetrahydro-2H-[1,2′]bipyridinyl-4-yl)-4-oxazol-5-yl-benzamide] | 0.038
O=C(c1ccc(-c2cnco2)cc1)N(C1CC1)C1CCN(c2ncc(C(F)(F)F)cc2F)CC1 [Example 74, N-Cyclopropyl-N-(3′-fluoro-5′-trifluoromethyl-3,4,5,6-tetrahydro-2H-[1,2′]bipyridinyl-4-yl)-4-oxazol-5-yl-benzamide] | 0.008
CCCOc1cnc(N2CCC(N(C(=O)c3ccc(-c4cnco4)cc3)C3CC3)CC2)nc1 [Example 75, N-Cyclopropyl-4-oxazol-5-yl-N-[1-(5-propoxy-pyrimidin-2-yl)-piperidin-4-yl]-benzamide] | 0.087
CCOc1cnc(N2CCC(N(C(=O)c3ccc(-c4cnco4)cc3)C3CC3)CC2)nc1 [Example 76, N-Cyclopropyl-N-[1-(5-ethoxy-pyrimidin-2-yl)-piperidin-4-yl]-4-oxazol-5-yl-benzamide] | 0.165
CC(C)Oc1cnc(N2CCC(N(C(=O)c3ccc(-c4cnco4)cc3)C3CC3)CC2)nc1 [Example 77, N-Cyclopropyl-N-[1-(5-isopropoxy-pyrimidin-2-yl)-piperidin-4-yl]-4-oxazol-5-yl-benzamide] | 0.115
O=C(c1ccc(-c2cnco2)cc1)N(C1CC1)C1CCN(c2cnc(C3CC3)cn2)CC1 [Example 78, N-Cyclopropyl-N-[1-(5-cyclopropyl-pyrazin-2-yl)-piperidin-4-yl]-4-oxazol-5-yl-benzamide] | 0.043
O=C(c1ccc(-c2cnco2)cc1)N(C1CC1)C1CCN(c2nnc(-c3ccccc3)s2)CC1 [Example 79, N-Cyclopropyl-4-oxazol-5-yl-N-[1-(5-phenyl-[1,3,4]thiadiazol-2-yl)-piperidin-4-yl]-benzamide] | 0.075
O=C(c1ccc(-c2cnco2)cc1)N(C1CC1)C1CCN(c2ccc(Cl)cn2)CC1 [Example 80, N-(5′-Chloro-3,4,5,6-tetrahydro-2H-[1,2′]bipyridinyl-4-yl)-N-cyclopropyl-4-oxazol-5-yl-benzamide] | 0.179
COC(=O)c1cnc(N2CCC(N(C(=O)c3ccc(-c4cnco4)cc3)C3CC3)CC2)cn1 [Example 81, 5-{4-[Cyclopropyl-(4-oxazol-5-yl-benzoyl)-amino]-piperidin-1-yl}-pyrazine-2-carboxylic acid methyl ester] | 0.498
Cc1cnc(C)c(N2CCC(N(C(=O)c3ccc(-c4cnco4)cc3)C3CC3)CC2)n1 [Example 82, N-Cyclopropyl-N-[1-(3,6-dimethyl-pyrazin-2-yl)-piperidin-4-yl]-4-oxazol-5-yl-benzamide] | 0.116
O=C(c1ccc(-c2cnco2)cc1)N(C1CC1)C1CCN(c2cnc(I)cn2)CC1 [Example 83, N-Cyclopropyl-N-[1-(5-iodo-pyrazin-2-yl)-piperidin-4-yl]-4-oxazol-5-yl-benzamide] | 0.01
COC(=O)c1cnc(N2CCC(N(C(=O)c3ccc(-c4cnco4)cc3)C3CC3)CC2)nc1 [Example 84, 2-{4-[Cyclopropyl-(4-oxazol-5-yl-benzoyl)-amino]-piperidin-1-yl}-pyrimidine-5-carboxylic acid methyl ester] | 0.116
O=C(c1ccc(-c2cnco2)cc1)N(C1CC1)C1CCN(c2cnccn2)CC1 [Example 85, N-Cyclopropyl-4-oxazol-5-yl-N-(1-pyrazin-2-yl-piperidin-4-yl)-benzamide] | 0.449
N#Cc1cnc(N2CCC(N(C(=O)c3ccc(-c4cnco4)cc3)C3CC3)CC2)cn1 [Example 86, N-[1-(5-Cyano-pyrazin-2-yl)-piperidin-4-yl]-N-cyclopropyl-4-oxazol-5-yl-benzamide] | 0.139
O=C(c1ccc(-c2cnco2)cc1)N(C1CC1)C1CCN(c2nnc(C(F)(F)F)s2)CC1 [Example 87, N-Cyclopropyl-4-oxazol-5-yl-N-[1-(5-trifluoromethyl-[1,3,4]thiadiazol-2-yl)-piperidin-4-yl]-benzamide] | 0.025
O=C(c1ccc(-c2cnco2)cc1)N(C1CC1)C1CCN(c2ncc(C3CC3)cn2)CC1 [Example 88, N-Cyclopropyl-N-[1-(5-cyclopropyl-pyrimidin-2-yl)-piperidin-4-yl]-4-oxazol-5-yl-benzamide] | 0.071
